This series in a line: pKa of monomers by neutralization titration. In kind it is physicochemical. The conditions noted are these: tetrahydrofuran/water=6:4. The protocol:
The pKa value of each monomer was calculated in accordance with a neutralization titration method in a system of tetrahydrofuran/water=6:4 by means of an automatic titrator COM-2500 (trade name) manufactured by Hiranuma Sangyo Co., Ltd.

As for `C=C(C)C(=O)NS(C)(=O)=O` [Monomer 1], the pKa (in general, the negative logarithm of the acid dissociation constant) was found to be 3.96.

Turning to `C=C(C)C(=O)O` [Methacrylic acid], the pKa was 3.98.

The record behind these values is patent US20090246481A1, “DISPERSION OF WATER-INSOLUBLE COLORANT, METHOD OF PRODUCING SUBSTANCE CONTAINING WATER-INSOLUBLE COLORANT, FINE PARTICLES OF WATER-INSOLUBLE COLORANT, DISPERSING AGENT FOR WATER-INSOLUBLE COLORANT, AND RECORDING LIQUID, INK SET, PRINTED ARTICLE, METHOD OF FORMING IMAGE AND IMAGE FORMING APPARATUS …” (FUJIFILM Corporation, priority 2008, published 2009).
